Where two headings read alike, the source gives them in different places.
Legend:
[1] = target: GST-Bcl-xL (Homo sapiens, UniProt Q07817); conditions: read-out: TR-FRET binding Bcl-xL Ki
[2] = system: mouse FL5.12 cells transfected with Bcl-XL; test: FL5.12 cellular assay (cell viability, CellTiter-Glo); assay type: cell-based; conditions: FL5.12 cells transfected with Bcl-XL, IL-3-depleted, 3% FBS assay media, 24 hours, CellTiter-Glo, read-out: FL5.12 Bcl-xL, - IL3, EC 50;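 further: each EC50 determination derived from duplicate measurements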

Sequence of GST-Bcl-xL (Q07817 whole entry): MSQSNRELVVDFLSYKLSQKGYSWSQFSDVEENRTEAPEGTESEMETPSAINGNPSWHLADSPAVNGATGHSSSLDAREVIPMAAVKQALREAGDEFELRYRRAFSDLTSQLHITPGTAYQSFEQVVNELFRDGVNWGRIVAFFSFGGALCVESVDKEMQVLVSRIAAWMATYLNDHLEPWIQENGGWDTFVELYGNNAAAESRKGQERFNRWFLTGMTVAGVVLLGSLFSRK

| Compound | Ki [1] [nM] | EC50 [2] [nM] | EC50 ([2]; Mus musculus) [nM] |
| --- | --- | --- | --- |
| O=C(Nc1nc2ccccc2s1)c1cccc2c1CN(c1ccc(-c3cnn(Cc4cccnc4)c3)c(C(=O)O)n1)CC2 [Example 3, 6-[8-(1,3-benzothiazol-2-ylcarbamoyl)-3,4-dihydroisoquinolin-2(1H)-yl]-3-[1-(pyridin-3-ylmethyl)-1H-pyrazol-4-yl]pyridine-2-carboxylic acid] | 258 | > 1000 | – |
| CC(c1ccccc1)n1cc(-c2ccc(N3CCc4cccc(C(=O)Nc5nc6ccccc6s5)c4C3)nc2C(=O)O)cn1 (centres unmarked) [Example 5, 6-[8-(1,3-benzothiazol-2-ylcarbamoyl)-3,4-dihydroisoquinolin-2(1H)-yl]-3-[1-(1-phenylethyl)-1H-pyrazol-4-yl]pyridine-2-carboxylic acid] | 19 | – | 408 |
| COc1ccc2nc(NC(=O)c3cccc4c3CN(c3ccc(-c5cnn(Cc6ccccc6)c5)c(C(=O)O)n3)CC4)sc2c1 [Example 11, 3-(1-benzyl-1H-pyrazol-4-yl)-6-{8-[(6-methoxy-1,3-benzothiazol-2-yl)carbamoyl]-3,4-dihydroisoquinolin-2(1H)-yl}pyridine-2-carboxylic acid] | 180 | > 1000 | – |
| Cc1nn(Cc2ccccc2)c(C)c1-c1ccc(N2CCc3cccc(C(=O)Nc4nc5ccccc5s4)c3C2)nc1C(=O)O [Example 12, 6-[8-(1,3-benzothiazol-2-ylcarbamoyl)-3,4-dihydroisoquinolin-2(1H)-yl]-3-(1-benzyl-3,5-dimethyl-1H-pyrazol-4-yl)pyridine-2-carboxylic acid] | 8 | – | 51 |
| COc1cccc(Cn2cc(-c3ccc(N4CCc5cccc(C(=O)Nc6nc7ccccc7s6)c5C4)nc3C(=O)O)cn2)c1 [Example 14, 6-[8-(1,3-benzothiazol-2-ylcarbamoyl)-3,4-dihydroisoquinolin-2(1H)-yl]-3-[1-(3-methoxybenzyl)-1H-pyrazol-4-yl]pyridine-2-carboxylic acid] | 12 | > 1000 | – |
| O=C(Nc1nc2ccccc2s1)c1cccc2c1CN(c1ccc(-c3cnn(Cc4ccc(Cl)cc4)c3)c(C(=O)O)n1)CC2 [Example 15, 6-[8-(1,3-benzothiazol-2-ylcarbamoyl)-3,4-dihydroisoquinolin-2(1H)-yl]-3-[1-(4-chlorobenzyl)-1H-pyrazol-4-yl]pyridine-2-carboxylic acid] | 35 | > 1000 | – |
| O=C(Nc1nc2ccccc2s1)c1cccc2c1CN(c1ccc(-c3cnn(Cc4cccc(O)c4)c3)c(C(=O)O)n1)CC2 [Example 17, 6-[8-(1,3-benzothiazol-2-ylcarbamoyl)-3,4-dihydroisoquinolin-2(1H)-yl]-3-[1-(3-hydroxybenzyl)-1H-pyrazol-4-yl]pyridine-2-carboxylic acid] | 31 | > 1000 | – |
| CN(C)CCOc1cccc(Cn2cc(-c3ccc(N4CCc5cccc(C(=O)Nc6nc7ccccc7s6)c5C4)nc3C(=O)O)cn2)c1 [Example 18, 6-[8-(1,3-benzothiazol-2-ylcarbamoyl)-3,4-dihydroisoquinolin-2(1H)-yl]-3-(1-{3-[2-(dimethylamino)ethoxy]benzyl}-1H-pyrazol-4-yl)pyridine-2-carboxylic acid] | 38 | – | 621 |
| Cc1nn(Cc2ccccc2)cc1-c1ccc(N2CCc3cccc(C(=O)Nc4nc5ccccc5s4)c3C2)nc1C(=O)O [Example 19, 6-[8-(1,3-benzothiazol-2-ylcarbamoyl)-3,4-dihydroisoquinolin-2(1H)-yl]-3-(1-benzyl-3-methyl-1H-pyrazol-4-yl)pyridine-2-carboxylic acid] | 28 | – | 398 |
| O=C(Nc1nc2cccc(Cl)c2s1)c1cccc2c1CN(c1ccc(-c3cnn(Cc4ccccc4)c3)c(C(=O)O)n1)CC2 [Example 21, 3-(1-benzyl-1H-pyrazol-4-yl)-6-{8-[(7-chloro-1,3-benzothiazol-2-yl)carbamoyl]-3,4-dihydroisoquinolin-2(1H)-yl}pyridine-2-carboxylic acid] | 183 | > 1000 | – |
| O=C(Nc1nc2ccccc2s1)c1cccc2c1CN(c1ccc(-c3cnn(Cc4cccc(N5CCCC5)n4)c3)c(C(=O)O)n1)CC2 [Example 22, 6-[8-(1,3-benzothiazol-2-ylcarbamoyl)-3,4-dihydroisoquinolin-2(1H)-yl]-3-(1-{[6-(pyrrolidin-1-yl)pyridin-2-yl]methyl}-1H-pyrazol-4-yl)pyridine-2-carboxylic acid] | 6 | – | 214 |
| O=C(Nc1nc2ccccc2s1)c1cccc2c1CN(c1ccc(-c3cnn(-c4ccccc4)c3)c(C(=O)O)n1)CC2 [Example 23, 6-[8-(1,3-benzothiazol-2-ylcarbamoyl)-3,4-dihydroisoquinolin-2(1H)-yl]-3-(1-phenyl-1H-pyrazol-4-yl)pyridine-2-carboxylic acid] | 182 | – | > 1000 |
| N#Cc1cccc(Cn2cc(-c3ccc(N4CCc5cccc(C(=O)Nc6nc7ccccc7s6)c5C4)nc3C(=O)O)cn2)c1 [Example 24, 6-[8-(1,3-benzothiazol-2-ylcarbamoyl)-3,4-dihydroisoquinolin-2(1H)-yl]-3-[1-(3-cyanobenzyl)-1H-pyrazol-4-yl]pyridine-2-carboxylic acid] | 64 | > 1000 | – |
| O=C(Nc1nc2ccccc2s1)c1cccc2c1CN(c1ccc(-c3cnn(Cc4ccccn4)c3)c(C(=O)O)n1)CC2 [Example 26, 6-[8-(1,3-benzothiazol-2-ylcarbamoyl)-3,4-dihydroisoquinolin-2(1H)-yl]-3-[1-(pyridin-2-ylmethyl)-1H-pyrazol-4-yl]pyridine-2-carboxylic acid] | 167 | > 1000 | – |
| N#Cc1nn(Cc2ccccc2)cc1-c1ccc(N2CCc3cccc(C(=O)Nc4nc5ccccc5s4)c3C2)nc1C(=O)O [Example 27, 6-[8-(1,3-benzothiazol-2-ylcarbamoyl)-3,4-dihydroisoquinolin-2(1H)-yl]-3-(1-benzyl-3-cyano-1H-pyrazol-4-yl)pyridine-2-carboxylic acid] | 315 | – | > 1000 |
| O=C(Nc1nc2ccccc2s1)c1cccc2c1CN(c1ccc(-c3cnn(Cc4ccc5ccccc5c4)c3)c(C(=O)O)n1)CC2 [Example 28, 6-[8-(1,3-benzothiazol-2-ylcarbamoyl)-3,4-dihydroisoquinolin-2(1H)-yl]-3-[1-(naphthalen-2-ylmethyl)-1H-pyrazol-4-yl]pyridine-2-carboxylic acid] | 33 | – | > 1000 |
| Cc1noc(-c2cccc(Cn3cc(-c4ccc(N5CCc6cccc(C(=O)Nc7nc8ccccc8s7)c6C5)nc4C(=O)O)cn3)c2)n1 [Example 29, 6-[8-(1,3-benzothiazol-2-ylcarbamoyl)-3,4-dihydroisoquinolin-2(1H)-yl]-3-{1-[3-(3-methyl-1,2,4-oxadiazol-5-yl)benzyl]-1H-pyrazol-4-yl}pyridine-2-carboxylic acid] | 18 | – | > 1000 |
| Cc1c(-c2ccc(N3CCc4cccc(C(=O)Nc5nc6ccccc6s5)c4C3)nc2C(=O)O)c(CO)nn1Cc1ccccc1 [Example 30, 6-[8-(1,3-benzothiazol-2-ylcarbamoyl)-3,4-dihydroisoquinolin-2(1H)-yl]-3-[1-benzyl-3-(hydroxymethyl)-5-methyl-1H-pyrazol-4-yl]pyridine-2-carboxylic acid] | 2 | – | 298 |
| O=C(Nc1nc2ccccc2s1)c1cccc2c1CN(c1ccc(-c3cnn(Cc4ccccc4OCc4ccccc4)c3)c(C(=O)O)n1)CC2 [Example 31, 6-[8-(1,3-benzothiazol-2-ylcarbamoyl)-3,4-dihydroisoquinolin-2(1H)-yl]-3-{1-[2-(benzyloxy)benzyl]-1H-pyrazol-4-yl}pyridine-2-carboxylic acid] | 18 | – | > 1000 |
| O=C(Nc1nc2ccccc2s1)c1cccc2c1CN(c1ccc(-c3ccn(Cc4ccccc4)c3)c(C(=O)O)n1)CC2 [Example 125, 6-[8-(1,3-benzothiazol-2-ylcarbamoyl)-3,4-dihydroisoquinolin-2(1H)-yl]-3-(1-benzyl-1H-pyrrol-3-yl)pyridine-2-carboxylic acid] | – | 527 | – |
| O=C(Nc1nc2ccccc2s1)c1cccc2c1CN(c1ccc(-c3cnn(CC4CCCCO4)c3)c(C(=O)O)n1)CC2 (centres unmarked) [Example 149, 6-[8-(1,3-benzothiazol-2-ylcarbamoyl)-3,4-dihydroisoquinolin-2(1H)-yl]-3-[1-(tetrahydro-2H-pyran-2-ylmethyl)-1H-pyrazol-4-yl]pyridine-2-carboxylic acid] | – | – | 986 |
| Cc1c(-c2ccc(N3CCc4cccc(C(=O)Nc5nc6ccccc6s5)c4C3)nc2C(=O)O)cccc1N(C)c1ccccc1 [Example 156, 6-[8-(1,3-benzothiazol-2-ylcarbamoyl)-3,4-dihydroisoquinolin-2(1H)-yl]-3-{2-methyl-3-[methyl(phenyl)amino]phenyl}pyridine-2-carboxylic acid] | – | – | 15 |
| Cc1c(-c2ccc(N3CCc4cccc(C(=O)Nc5nc6ccccc6s5)c4C3)nc2C(=O)O)cccc1N(C)C1CCCC(C)(C)C1 (centres unmarked) [Example 159, 6-[8-(1,3-benzothiazol-2-ylcarbamoyl)-3,4-dihydroisoquinolin-2(1H)-yl]-3-{3-[(3,3-dimethylcyclohexyl)(methyl)amino]-2-methylphenyl}pyridine-2-carboxylic acid] | – | – | 31 |
| CN(c1nccc(-c2ccc(N3CCc4cccc(C(=O)Nc5nc6ccccc6s5)c4C3)nc2C(=O)O)c1C#N)C1CCCCC1 [Example 164, 6-[8-(1,3-benzothiazol-2-ylcarbamoyl)-3,4-dihydroisoquinolin-2(1H)-yl]-3'-cyano-2'-[cyclohexyl(methyl)amino]-3,4'-bipyridine-2-carboxylic acid] | – | – | 308 |
| CN(c1cccc(-c2ccc(N3CCc4cccc(C(=O)Nc5nc6ccccc6s5)c4C3)nc2C(=O)O)c1C#N)S(=O)(=O)C1CCCCC1 [Example 181, 6-[8-(1,3-benzothiazol-2-ylcarbamoyl)-3,4-dihydroisoquinolin-2(1H)-yl]-3-{2-cyano-3-[(cyclohexylsulfonyl)(methyl)amino]phenyl}pyridine-2-carboxylic acid] | – | – | 241 |

Source: patent publication EP2768830B1, “APOPTOSIS-INDUCING AGENTS FOR THE TREATMENT OF CANCER AND IMMUNE AND AUTOIMMUNE DISEASES” (AbbVie Inc., priority 2011, dated 2013)
